Laboratory results published in patent US6274715A, “Tricyclic erythromycin derivatives” (priority 1997, dated 2001).
In brackets after ≈: the same amount, converted by molar mass.

Legend:
Assay type in all cases: cell-based
ESCHERICHIA COLI JUHL = details: E. coli JUHL; BHI agar; unit assumed
[1] = system: STREPTOCOCCUS PYOGENES EES61; assay: In vitro antibacterial activity, MIC, BHI agar dilution; details: S. pyogenes EES61, unit assumed
PSEUDOMONAS CEPACIA 296I = assay: as above; details: P. cepacia 296I, unit assumed
[2] = system: PSEUDOMONAS AERUGINOSA K799/WT; assay: as above; details: P. aeruginosa K799/WT, unit assumed
ESCHERICHIA COLI SS = assay: as above; details: E. coli SS, unit assumed
[3] = system: STREPTOCOCCUS BOVIS A-5169; assay: as above; details: S. bovis A-5169, unit assumed
[4] = system: STAPHYLOCOCCUS AUREUS 1775; assay: as above; details: S. aureus 1775, unit assumed
[5] = system: MYCOBACTERIUM SMEGMATIS ATCC 114; assay: as above; details: M. smegmatis ATCC 114, unit assumed
[6] = system: STAPHYLOCOCCUS AUREUS A-5278; assay: as above; details: S. aureus A-5278, unit assumed
H. Influenza Dill AMP R = assay: In vitro antibacterial activity against H. Influenza Dill AMP R, MIC; details: separate assay, unit assumed
Method: Representative compounds of the present invention were assayed in vitro for antibacterial activity as follows: Twelve petri dishes containing successive aqueous dilutions of the test compound mixed with 10 mL of sterilized Brain Heart Infusion (BHI) agar (Difco 0418-01-5) were prepared. Each plate was inoculated with 1:100 (or 1:10 for slow-growing strains, such as Micrococcus and Streptococcus) dilutions of up to 32 different microorganisms, using a Steers replicator block. The inoculated plates were incubated at 35-37° C. for 20 to 24 hours. In addition, a control plate, using BHI agar containing no test compound, was prepared and incubated at the beginning and end of each test.
After incubation, each plate was visually inspected. The minimum inhibitory concentration (MIC) was defmed as the lowest concentration of drug yielding no growth, a slight haze, or sparsely isolated colonies on the inoculum spot as compared to the growth control.
In a separate assay representative compounds of the invention were assayed in vitro for antibacterial activity against the H. Influenza Dill AMP R strain, according to the protocol described above.

[7] = system: PSEUDOMONAS AERUGINOSA DPHD-2862; assay: In vitro antibacterial activity, MIC, BHI agar dilution; details: P. aeruginosa DPHD-2862, unit assumed
[8] = system: ACINETOBACTER CALCOACETICUS CMX 669; assay: as above; details: A. calcoaceticus CMX 669, unit assumed
[9] = system: PSEUDOMONAS AERUGINOSA DPHD-5263; assay: as above; details: P. aeruginosa DPHD-5263, unit assumed
[10] = system: STREPTOCOCCUS PYOGENES 930; assay: as above; details: S. pyogenes 930, unit assumed
[11] = system: STAPHYLOCOCCUS AUREUS A5177; assay: as above; details: S. aureus A5177, unit assumed
ESCHERICHIA COLI KNK 437 = details: E. coli KNK 437; BHI agar; unit assumed
[12] = system: PSEUDOMONAS AERUGINOSA K799/61; assay: In vitro antibacterial activity, MIC, BHI agar dilution; details: P. aeruginosa K799/61, unit assumed
[13] = system: STAPHYLOCOCCUS AUREUS CMX 553; assay: as above; details: S. aureus CMX 553, unit assumed
[14] = system: STAPHYLOCOCCUS EPIDERMIDIS 3519; details: S. epidermidis 3519; BHI agar; unit assumed
[15] = system: STAPHYLOCOCCUS AUREUS ATCC 6538P; assay: In vitro antibacterial activity, MIC, BHI agar dilution; details: S. aureus ATCC 6538P, 35-37° C., 20 to 24 hours, unit assumed
EN[…] ATCC 8043 = assay: as above; details: E. faecium ATCC 8043, unit assumed
Method in brief: (§1)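 BHI agar dilution, 12 plates; inoculum 1:100 (1:10 slow-growing strains), Steers replicator; 35-37° C, 20-24 h. MIC = lowest conc. with no growth/slight haze/sparse colonies vs growth control, visual read. Erythromycin A reference plate.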

M[…] ATCC 4698 = assay: as above; details: M. luteus ATCC 4698, unit assumed
Method in brief: as §1

STR[…] 508 = assay: as above; details: S. agalactiae CMX 508, unit assumed
Method in brief: as §1

M[…] ATCC 9341 = assay: as above; details: M. luteus ATCC 9341, unit assumed
Method in brief: as §1

[16] = system: KLEBSIELLA PNEUMONIAE ATCC 8045; assay: as above; details: K. pneumoniae ATCC 8045, unit assumed
[17] = system: STAPHYLOCOCCUS AUREUS CMX 642A; assay: as above; details: S. aureus CMX 642A, unit assumed
CANDIDA ALBICANS CCH 442 = assay: as above; details: C. albicans CCH 442, unit assumed
[18] = system: STREPTOCOCCUS PYOGENES PIU 2548; assay: as above; details: S. pyogenes PIU 2548, unit assumed
[19] = system: STAPHYLOCOCCUS AUREUS NCTC10649M; assay: as above; details: S. aureus NCTC10649M, unit assumed
ESCHERICHIA COLI DC-2 = assay: as above; details: E. coli DC-2, unit assumed
[20] = system: ENTEROBACTER AEROGENES ATCC 13048; assay: as above; details: E. aerogenes ATCC 13048, unit assumed
[21] = system: PROVIDENCIA STUARTII CMX 640; details: P. stuartii CMX 640; BHI agar; unit assumed
ESCHERICHIA COLI H560 = assay: In vitro antibacterial activity, MIC, BHI agar dilution; details: E. coli H560, unit assumed
[22] = system: PSEUDOMONAS AERUGINOSA 5007; assay: as above; details: P. aeruginosa 5007, unit assumed
[23] = system: PSEUDOMONAS AERUGINOSA BMH10; assay: as above; details: P. aeruginosa BMH10, unit assumed

Structure (SMILES)	MIC (ESCHERICHIA COLI JUHL) [µg/mL]	MIC [1] [µg/mL]	MIC (PSEUDOMONAS CEPACIA 296I) [µg/mL]	MIC [2] [µg/mL]	MIC (ESCHERICHIA COLI SS) [µg/mL]	MIC [3] [µg/mL]	MIC [4] [µg/mL]	MIC [5] [µg/mL]	MIC [6] [µg/mL]	MIC (H. Influenza Dill AMP R) [µg/mL]	MIC [7] [µg/mL]	MIC [8] [µg/mL]	MIC [9] [µg/mL]	MIC [10] [µg/mL]	MIC [11] [µg/mL]	MIC (ESCHERICHIA COLI KNK 437) [µg/mL]	MIC [12] [µg/mL]	MIC [13] [µg/mL]	MIC [14] [µg/mL]	MIC [15] [µg/mL]	other results
CC[C@H]1OC(=O)[C@H](C)C(=O)[C@H](C)[C@@H](O[C@@H]2O[C@H](C)C[C@H](N(C)C)[C@H]2O)[C@](C)(OC)C[C@@H](C)C2=N[C@H](COCc3cc(C)c4ccccc4n3)CN3C(=O)O[C@@]1(C)[C@H]3[C@H]2C [Example 83]	> 100	0.01 (≈ 0.0122 µM)	50 (≈ 60.8 µM)	> 100	1.56 (≈ 1.9 µM)	0.02 (≈ 0.0243 µM)	> 100	0.39 (≈ 0.474 µM)	> 100	16 (≈ 19.4 µM)	> 100	100 (≈ 122 µM)	> 100	100 (≈ 122 µM)	0.2 (≈ 0.243 µM)	> 100	6.2 (≈ 7.53 µM)	0.2 (≈ 0.243 µM)	0.39 (≈ 0.474 µM)	0.2 (≈ 0.243 µM)	MIC (EN[…] ATCC 8043): 0.05 µg/mL (≈ 0.0608 µM); MIC (M[…] ATCC 4698): 0.39 µg/mL (≈ 0.474 µM); MIC (STR[…] 508): 0.01 µg/mL (≈ 0.0122 µM); MIC (M[…] ATCC 9341): 0.05 µg/mL (≈ 0.0608 µM); MIC [16]: > 100 µg/mL; MIC [17]: 0.2 µg/mL (≈ 0.243 µM); MIC (CANDIDA ALBICANS CCH 442): > 100 µg/mL; MIC [18]: 0.39 µg/mL (≈ 0.474 µM); MIC [19]: 0.2 µg/mL (≈ 0.243 µM); MIC (ESCHERICHIA COLI DC-2): > 100 µg/mL; MIC [20]: > 100 µg/mL; MIC [21]: > 100 µg/mL; MIC (ESCHERICHIA COLI H560): > 100 µg/mL; MIC [22]: > 100 µg/mL; MIC [23]: > 100 µg/mL
CC[C@H]1OC(=O)[C@H](C)C(=O)[C@H](C)[C@@H](O[C@@H]2O[C@H](C)C[C@H](N(C)C)[C@H]2O)[C@](C)(OC)C[C@@H](C)C2=N[C@@H]3CNC[C@@H]3N3C(=O)O[C@@]1(C)[C@H]3[C@H]2C [Example 19]	12.5 (≈ 18.4 µM)	0.05 (≈ 0.0737 µM)	> 100	> 100	0.2 (≈ 0.295 µM)	0.005 (≈ 0.00737 µM)	> 100	3.1 (≈ 4.57 µM)	> 100	16 (≈ 23.6 µM)	> 100	6.2 (≈ 9.13 µM)	> 100	> 100	0.39 (≈ 0.574 µM)	6.2 (≈ 9.13 µM)	0.39 (≈ 0.574 µM)	0.39 (≈ 0.574 µM)	0.39 (≈ 0.574 µM)	0.39 (≈ 0.574 µM)	MIC (EN[…] ATCC 8043): 0.05 µg/mL (≈ 0.0737 µM); MIC (M[…] ATCC 4698): 0.2 µg/mL (≈ 0.295 µM); MIC (STR[…] 508): 0.05 µg/mL (≈ 0.0737 µM); MIC (M[…] ATCC 9341): 0.1 µg/mL (≈ 0.147 µM); MIC [16]: 12.5 µg/mL (≈ 18.4 µM); MIC [17]: 0.39 µg/mL (≈ 0.574 µM); MIC (CANDIDA ALBICANS CCH 442): > 100 µg/mL; MIC [18]: 0.78 µg/mL (≈ 1.15 µM); MIC [19]: 0.39 µg/mL (≈ 0.574 µM); MIC (ESCHERICHIA COLI DC-2): 6.2 µg/mL (≈ 9.13 µM); MIC [20]: 12.5 µg/mL (≈ 18.4 µM); MIC [21]: > 100 µg/mL; MIC (ESCHERICHIA COLI H560): 3.1 µg/mL (≈ 4.57 µM); MIC [22]: > 100 µg/mL; MIC [23]: 50 µg/mL (≈ 73.7 µM)
